Key:
male C57/BL6 mice [1] = assay: Paw placement test after photothrombotic stroke in the mouse; assay type: in vivo
male C57/BL6 mice [2] = assay: as above; assay type: in vivo; details: mouse; five days treatment initiated 10 days after stroke; FIG. 2C
Procedure: Animals. All experiments were carried out with the approval of the Malmo-Lund animal review board and according to the ARRIVE guidelines. The experiments were carried out on male C57/BL6 mice (8 weeks of age, Charles River Scanbur A/S Karlslunde, Denmark). Studies were subjected to randomization and carried out in a blinded fashion to the investigators who performed the surgeries and behavioral assessment.
Materials were as in Example 1 and the administration of the drug was made as in Example 1. Also the positive allosteric modulator (PAM) for the mGlur5 receptor was SIN006 (N-Cyclobutyl-6-[2-(3-fluorophenyl)ethynyl]-3-pyridinecarboxamide hydrochloride; VU0360172).
Induction of stroke in the mouse. Mice were subjected to unilateral photothrombotic (PT) cortical infarct in the left sensori-motor cortex. During surgery, the body temperature of the animals was kept at 37° C. using a self-regulating heating pad. Animals were anesthetized using 1.5-2.5% isoflurane (Sigma) in 100% 02. The skin above the skull was incised; a fiber optic bundle with a 2.5 mm aperture diameter was connected to a cold light source (CL 1500 ECO, Zeiss, Germany) and adjusted to the stereotaxic coordinates of the sensori-motor cortex, 0.5 mm anterior to bregma and 1.5 mm lateral to midline. One intraperitoneal (i.p.) injection of 0.25 ml Rose Bengal (10 mg/ml in 0.9% saline; Sigma-Aldrich, Germany) was given 5 min before the light was turned on for 20 minutes. Care was taken not to exceed 38° C. at the skull surface, underneath the fiber optic bundle. Post surgery, animals were allowed to awake from anesthesia while on a heating pad and returned to the cages with free access to food pellets and water.
Enriched housing. It is well known that housing of rodents in an enriched environment stimulates the various sensori-motor systems of the brain enhancing recovery after experimental stroke. Enriched housing was accomplished by the following procedure. After selective sorting at day 2 after stroke, mice were randomly distributed into standard (STD, 17 cm×16 cm×34.5 cm) or enriched cages (EE, 30 cm×27 cm×43 cm). Multilevel-enriched cages were equipped with various colored objects such as plastic tunnels, small houses, slides and rodent running wheels; the disposition of the objects was changed every second day. Mice were housed in either standard (2 animals/cage) or enriched cages (6-8 animals/cage) for 12 days. Animals in standard cages were handled similarly except for the housing condition.
Paw placement test. The mouse was held along its rostro-caudal extension on the edge of a bench and both the unilateral front and hind paws were gently pushed along it. The placement of each paw was recorded when the mouse was moved towards the edge. Sensori-motor dysfunction was assessed by using a score of 1, 0.5, and 0: (1)—the paw is immediately placed on the table surface; (0.5)—the limb is extended, but with some movements and attempts to place the paw on the surface of the table; (0)—the paw is totally immobilized, hanging down, with no movement. In order to obtain groups with a similar functional deficit prior to treatment of the animals with drugs or vehicle, selective sorting was performed on day 2 after experimental stroke, a time point of recovery when the infarct development had subsided.
Administration of the compounds. The compounds were administrated orally (p.o.) by catheters placed in the stomach. The amount of solutions were 0.2 ml/rat and 0.1 ml/mice.
Induction of stroke was as made as in Example 1 for rats and as in Example 2 in mice. Assessment of neurological function was performed as in Example 1 for rats and as in Example 2 for mice. The animals were perfused and immunostained as in Example 1, and the infarct size was assessed as in Example 1.

`Cc1nc(C#Cc2cccnc2)cs1` [SIN007, 3-[(2methyl-1,3-thiazol-4-yl)ethynyl]pyridine] was tested. Which recovery of function (male C57/BL6 mice [1]; 1 mg/kg i.p. daily for 3 days, standard housing, FIG. 2F) did it give?
Its recovery of function is “moderately enhances recovery of function”.

And the “recovery of function, combined with enriched environment” value (male C57/BL6 mice [1]; 1 mg/kg i.p. for 3 days plus housing in enriched environment, FIG. 2F)?
The value was “significantly improves recovery”.

And the “functional recovery (paw placement)” value (male C57/BL6 mice [1]; 5 mg/kg i.p. daily for 5 days starting 2 days after stroke, vs vehicle, p<0.01, FIG. 2A)?
Its value is “strong recovery enhancing effect”.

What about the “paw placement score after 5 days of treatment” value (male C57/BL6 mice [1]; SIN007 5 mg/kg i.p. alone, vs vehicle, FIG. 2D) of the same compound?
Its value is “recovered paw function”.

What about the “recovery of function, delayed treatment” value (male C57/BL6 mice [2]) of the same compound?
Its value is “the recovery of function is the same as when treatment is initiated at 2 days after stroke”.

From US11033545B2, “Negative allosteric modulators of MGLUR5 for use in the treatment of mature brain damages” (Sinntaxis AB, priority 2016, dated 2021)
